In ChEMBL document CHEMBL1201862, “PubChem BioAssay data set” (2004):
Blank lines part the entries; values can stand above or below the compound they belong to. Activity calls are given as the source filed them.

How the values were obtained:
[1] = intracellular Trypanosoma cruzi inhibitors in host cells – cell-based, plate reader, cherry-pick samples, set 3, dose response (AID 651818); assay type: functional;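 note: compounds incubated with infected cells for about four days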
[2] = target: T1, Histone-lysine N-methyltransferase NSD2 (Homo sapiens, UniProt O96028); assay type: biochemical
T1 sequence (O96028 whole entry): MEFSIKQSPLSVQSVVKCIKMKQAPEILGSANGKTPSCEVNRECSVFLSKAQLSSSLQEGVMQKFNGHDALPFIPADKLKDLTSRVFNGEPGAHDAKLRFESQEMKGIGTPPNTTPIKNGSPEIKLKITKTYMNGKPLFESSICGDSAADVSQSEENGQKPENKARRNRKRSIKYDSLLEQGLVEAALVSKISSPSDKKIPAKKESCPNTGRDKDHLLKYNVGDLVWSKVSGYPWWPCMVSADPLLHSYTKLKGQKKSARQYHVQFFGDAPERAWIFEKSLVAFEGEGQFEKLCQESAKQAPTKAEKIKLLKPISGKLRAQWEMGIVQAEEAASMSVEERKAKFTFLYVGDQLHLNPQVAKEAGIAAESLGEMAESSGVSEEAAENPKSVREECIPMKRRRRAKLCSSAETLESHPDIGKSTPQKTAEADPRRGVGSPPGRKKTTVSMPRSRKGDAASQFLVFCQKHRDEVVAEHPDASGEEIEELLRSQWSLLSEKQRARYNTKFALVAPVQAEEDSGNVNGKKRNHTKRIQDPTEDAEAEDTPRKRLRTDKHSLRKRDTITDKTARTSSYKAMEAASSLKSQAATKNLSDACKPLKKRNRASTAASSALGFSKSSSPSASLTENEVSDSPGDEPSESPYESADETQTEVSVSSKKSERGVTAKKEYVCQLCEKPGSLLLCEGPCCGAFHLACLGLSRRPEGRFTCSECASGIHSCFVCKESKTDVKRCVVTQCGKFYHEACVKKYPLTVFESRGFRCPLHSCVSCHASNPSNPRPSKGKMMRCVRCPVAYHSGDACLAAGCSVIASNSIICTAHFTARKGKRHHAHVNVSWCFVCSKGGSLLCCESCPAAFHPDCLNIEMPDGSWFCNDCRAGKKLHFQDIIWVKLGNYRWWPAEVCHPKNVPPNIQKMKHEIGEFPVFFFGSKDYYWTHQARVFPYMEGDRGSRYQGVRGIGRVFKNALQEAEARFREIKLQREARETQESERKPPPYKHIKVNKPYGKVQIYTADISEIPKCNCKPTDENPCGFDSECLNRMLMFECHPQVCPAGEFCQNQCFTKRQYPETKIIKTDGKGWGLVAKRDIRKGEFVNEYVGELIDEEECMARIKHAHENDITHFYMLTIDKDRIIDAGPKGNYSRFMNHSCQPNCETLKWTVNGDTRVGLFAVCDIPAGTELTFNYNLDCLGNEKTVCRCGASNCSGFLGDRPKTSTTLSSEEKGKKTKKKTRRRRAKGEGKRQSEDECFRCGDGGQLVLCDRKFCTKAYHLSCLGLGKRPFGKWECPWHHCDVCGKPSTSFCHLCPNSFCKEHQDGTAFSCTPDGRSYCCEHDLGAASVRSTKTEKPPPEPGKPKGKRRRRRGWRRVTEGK

[3] = target: T2, DNA repair and recombination protein RAD54-like (Homo sapiens, UniProt Q92698); experiment: RAD54 Holliday junction migration blockers – biochemical, fluorescence, cherry-picked samples, dose series, confirmation (AID 651657); assay type: functional
T2 sequence (Q92698 whole entry): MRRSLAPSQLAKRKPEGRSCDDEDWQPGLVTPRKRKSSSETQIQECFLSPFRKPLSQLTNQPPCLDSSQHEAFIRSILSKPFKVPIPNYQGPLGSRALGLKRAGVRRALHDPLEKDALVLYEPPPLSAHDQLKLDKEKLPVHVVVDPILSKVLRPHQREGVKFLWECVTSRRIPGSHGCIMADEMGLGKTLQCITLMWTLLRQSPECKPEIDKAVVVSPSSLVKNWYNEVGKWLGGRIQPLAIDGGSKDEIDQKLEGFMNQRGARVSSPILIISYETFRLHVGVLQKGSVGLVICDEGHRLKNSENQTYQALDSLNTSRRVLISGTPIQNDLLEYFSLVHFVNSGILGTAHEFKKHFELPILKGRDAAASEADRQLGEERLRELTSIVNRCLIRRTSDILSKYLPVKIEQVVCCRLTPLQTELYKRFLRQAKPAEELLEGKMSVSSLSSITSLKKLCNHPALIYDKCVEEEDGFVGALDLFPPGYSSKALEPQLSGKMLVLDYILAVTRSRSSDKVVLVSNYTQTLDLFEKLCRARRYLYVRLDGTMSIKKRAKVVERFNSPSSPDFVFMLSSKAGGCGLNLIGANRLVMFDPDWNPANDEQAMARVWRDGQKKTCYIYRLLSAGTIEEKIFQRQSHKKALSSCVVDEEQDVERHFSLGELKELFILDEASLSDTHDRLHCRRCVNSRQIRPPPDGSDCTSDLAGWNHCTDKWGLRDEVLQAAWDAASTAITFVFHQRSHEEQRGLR

[4] = (§1) Counterscreen for antagonists of the orexin 1 receptor (OX1R; HCRTR1): Fluorescence-based cell-based high throughput dose response assay to identify antagonists of the parental CHO cell line. [Related pubchem assays (depositor defined):AID434989, AID435008, AID463079, AID485270, AID492963, AID492964, AID492965, AID493232, AID504699, AID504701]; assay type: functional
CHO-K1 = experiment: as §1, with “Homogeneous time resolved fluorescence (HTRF)-based” for “Fluorescence-based”, “cell-based” for “cell-based high throughput”, “CHO-K1” for “CHO”; assay type: functional; details: Cricetulus griseus;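 note: potency for inhibition of ATP-stimulated IP1 production as antagonists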
Orexin receptor type 2 [5] = target: T3, Orexin receptor type 2 (Homo sapiens, UniProt O43614); experiment: Counterscreen assay for antagonists of the orexin 1 receptor (OX1R; HCRTR1): Fluorescence-based cell-based dose response assay for antagonists of the orexin 2 receptor (OX2R; HCRTR2), run by assay provider.; assay type: functional
T3 sequence (O43614 whole entry): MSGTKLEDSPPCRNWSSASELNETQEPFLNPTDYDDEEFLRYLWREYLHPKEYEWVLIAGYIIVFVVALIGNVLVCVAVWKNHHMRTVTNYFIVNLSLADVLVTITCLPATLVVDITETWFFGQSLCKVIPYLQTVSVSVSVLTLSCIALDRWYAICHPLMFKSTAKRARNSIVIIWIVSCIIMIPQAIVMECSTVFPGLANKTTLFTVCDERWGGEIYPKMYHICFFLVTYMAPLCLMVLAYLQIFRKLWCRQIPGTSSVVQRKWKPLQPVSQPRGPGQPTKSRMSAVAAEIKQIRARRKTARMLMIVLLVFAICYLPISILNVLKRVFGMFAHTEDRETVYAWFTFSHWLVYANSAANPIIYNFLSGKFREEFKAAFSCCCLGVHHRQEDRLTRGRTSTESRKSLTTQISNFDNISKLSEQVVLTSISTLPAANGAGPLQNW

Orexin receptor type 2 [6] = target: T3, Orexin receptor type 2; experiment: Counterscreen assay for antagonists of the orexin 1 receptor (OX1R; HCRTR1): Homogeneous Time Resolved Fluorescence (HTRF)-based cell-based dose response assay for antagonists of the orexin 2 receptor (OX2R; HCRTR2), run by assay provider.; assay type: functional
[7] = target: T4, Orexin/Hypocretin receptor type 1 (Homo sapiens, UniProt O43613); experiment: (§2) Fluorescence-based cell-based high throughput dose response assay for antagonists of the orexin 1 receptor (OX1R; HCRTR1). [Related pubchem assays (depositor defined):AID434989, AID435008, AID463079, AID485270, AID492963, AID492964, AID492965, AID493232, AID504717, AID504718]; assay type: functional
T4 sequence (O43613 whole entry): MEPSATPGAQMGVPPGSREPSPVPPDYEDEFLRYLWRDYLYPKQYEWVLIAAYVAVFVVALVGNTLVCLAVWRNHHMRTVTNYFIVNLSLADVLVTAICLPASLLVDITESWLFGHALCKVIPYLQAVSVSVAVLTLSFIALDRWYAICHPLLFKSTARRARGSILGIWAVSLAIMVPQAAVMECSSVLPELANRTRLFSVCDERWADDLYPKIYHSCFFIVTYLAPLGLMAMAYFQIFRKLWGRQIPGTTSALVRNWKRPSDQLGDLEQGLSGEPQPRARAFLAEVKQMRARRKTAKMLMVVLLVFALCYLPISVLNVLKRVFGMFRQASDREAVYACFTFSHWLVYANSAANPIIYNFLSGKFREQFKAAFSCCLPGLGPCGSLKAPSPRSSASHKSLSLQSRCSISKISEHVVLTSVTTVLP

[8] = target: T4, Orexin/Hypocretin receptor type 1; experiment: as §2, with “Homogeneous Time Resolved Fluorescence (HTRF)-based” for “Fluorescence-based”; assay type: functional
[9] = target: T5, Tyrosine-protein phosphatase non-receptor type 11 (Homo sapiens, UniProt Q06124); experiment: PTPN11 enzyme inhibitors – biochemical, selectivity assay for STEP inhibitor project, dose response (AID 602367); assay type: functional; details: read-out: IC50_Mean
T5 sequence (Q06124 whole entry): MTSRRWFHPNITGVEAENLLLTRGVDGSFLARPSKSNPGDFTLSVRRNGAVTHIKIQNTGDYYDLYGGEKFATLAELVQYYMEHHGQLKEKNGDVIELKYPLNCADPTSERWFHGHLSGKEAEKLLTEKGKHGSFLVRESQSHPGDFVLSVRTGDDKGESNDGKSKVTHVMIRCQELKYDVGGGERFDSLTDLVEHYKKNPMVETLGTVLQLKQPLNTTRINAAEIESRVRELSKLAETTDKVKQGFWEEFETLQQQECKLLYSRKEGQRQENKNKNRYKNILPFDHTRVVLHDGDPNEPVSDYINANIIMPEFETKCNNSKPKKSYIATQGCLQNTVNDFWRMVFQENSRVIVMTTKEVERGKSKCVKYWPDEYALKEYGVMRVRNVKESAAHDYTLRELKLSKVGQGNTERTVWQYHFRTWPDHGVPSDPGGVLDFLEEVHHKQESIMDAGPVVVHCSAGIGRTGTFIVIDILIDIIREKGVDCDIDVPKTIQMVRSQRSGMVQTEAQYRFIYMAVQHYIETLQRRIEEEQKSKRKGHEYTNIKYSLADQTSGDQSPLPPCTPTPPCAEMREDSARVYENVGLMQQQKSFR

[10] = target: T6, Tyrosine-protein phosphatase non-receptor type 5 (Homo sapiens, UniProt P54829); experiment: PTPN5 enzyme inhibition – biochemical, fluorescence intensity, uHTS hits, confirmation (AID 602372); assay type: functional; details: read-out: IC50_Mean
T6 sequence (P54829 whole entry): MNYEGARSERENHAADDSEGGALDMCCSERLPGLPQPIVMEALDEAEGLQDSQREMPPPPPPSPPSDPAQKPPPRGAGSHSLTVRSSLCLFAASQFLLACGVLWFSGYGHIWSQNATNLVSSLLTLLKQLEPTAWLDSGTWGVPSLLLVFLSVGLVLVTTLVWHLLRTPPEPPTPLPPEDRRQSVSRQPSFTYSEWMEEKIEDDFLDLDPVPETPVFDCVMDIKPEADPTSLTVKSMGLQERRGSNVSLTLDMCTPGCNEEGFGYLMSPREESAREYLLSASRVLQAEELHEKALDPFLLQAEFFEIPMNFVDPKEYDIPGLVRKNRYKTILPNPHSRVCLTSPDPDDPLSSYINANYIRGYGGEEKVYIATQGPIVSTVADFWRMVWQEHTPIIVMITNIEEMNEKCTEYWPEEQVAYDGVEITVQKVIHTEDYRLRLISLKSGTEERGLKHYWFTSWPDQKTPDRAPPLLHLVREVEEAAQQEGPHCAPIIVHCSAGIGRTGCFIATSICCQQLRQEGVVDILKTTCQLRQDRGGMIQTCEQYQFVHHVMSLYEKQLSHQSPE

[11] = target: Dual specificity protein phosphatase 3 (Homo sapiens, UniProt P51452); experiment: VHR phosphatase inhibition, dose response, selectivity assay for STEP inhibitor project, biochemical (AID 602374); assay type: functional; details: read-out: IC50_Mean
Dual specificity protein phosphatase 3, sequence (P51452 whole entry): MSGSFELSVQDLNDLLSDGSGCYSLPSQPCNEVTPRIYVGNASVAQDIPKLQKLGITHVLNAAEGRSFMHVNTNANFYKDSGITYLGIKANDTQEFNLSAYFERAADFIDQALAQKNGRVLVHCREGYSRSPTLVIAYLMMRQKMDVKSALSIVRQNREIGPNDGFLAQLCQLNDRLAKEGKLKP

SMILES: C[C@@H]1CN([C@H](C)CO)C(=O)c2cccc(NS(=O)(=O)c3ccc(F)cc3)c2O[C@@H]1CN(C)C(=O)Nc1ccc(C(F)(F)F)cc1
AC50 [1]: 4.16 µM (active)

AC50 [2]: > 20 µM (inactive) | AC50 [3]: 25.7 µM (active)
SMILES: CC(C)NC1CCC(Nc2ccnc3cc(Cl)ccc23)CC1 (stereo unspecified)

SMILES: Cc1c(C(=O)Nc2ccc(N3CCOCC3)cc2)oc2ccccc12
IC50 [4]: > 49.8 µM (inactive) | IC50 (CHO-K1): > 66.2 µM (inactive) | IC50 (Orexin receptor type 2 [5]): > 88.8 µM (inactive) | IC50 (Orexin receptor type 2 [6]): > 50 µM (inactive) | IC50 [7]: 1.46 µM (active) | IC50 [8]: 0.277 µM (active)

SMILES: C[C@@H]1CN([C@@H](C)CO)C(=O)Cc2cc(NC(=O)Nc3ccc(C(F)(F)F)cc3)ccc2O[C@@H]1CN(C)Cc1ccc(C(=O)Nc2ccccc2N)cc1
AC50 [1]: 1.8 µM (active)

IC50 [9]: 1.89 µM (active) | IC50 [10]: 16.4 µM (active) | IC50 [11]: 1.12 µM (active)
SMILES: COc1ccc(NC(=S)NCCCN2CCCC2)cc1Cl

SMILES: O=C(N/N=C/c1c(Cl)[nH]c2ccccc12)c1sc2ccccc2c1Cl
IC50 [4]: > 49.7 µM (inactive) | IC50 (CHO-K1): > 66.2 µM (inactive) | IC50 (Orexin receptor type 2 [5]): > 88.8 µM (inactive) | IC50 (Orexin receptor type 2 [6]): 6.88 µM (active) | IC50 [7]: 3.23 µM (active) | IC50 [8]: 2.14 µM (active)

SMILES: C[C@@H]1CN([C@H](C)CO)C(=O)c2cc(N(C)C)ccc2O[C@@H]1CN(C)Cc1ccc(C(=O)Nc2ccccc2N)cc1
AC50 [1]: 3.19 µM (active)

AC50 [3]: 71.6 µM (active)
SMILES: CCCN(CCC)CCCNC(=O)c1cc2c(O)nc3ccccc3c2s1
